This note sets out measurements from patent publication US9290451B2 (Hoffmann-La Roche Inc., priority 2011, dated 2016).

Where only a bound is given, the exact number is not on record here.

One test concerns the target human CB1 receptors (Homo sapiens (Human), UniProt P21554). Kind of test: cAMP assay, CHO cells expressing human CB1 receptors. As to conditions: CHO cells expressing human CB1, cAMP; read-out: human CB1 EC50. The class given is cell-based. The procedure, abridged:
(§1)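 Whole CHO cells were preincubated in Krebs Ringer bicarbonate buffer with 1 mM IBMX for 30 min at 30 °C, then exposed to compounds for 30 min at 30 °C. cAMP was quantified by time-resolved FRET (cAMP-Nano-TRF) against a standard curve, and EC50 values were derived.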
(In general: cAMP levels reflect the balance of adenylyl cyclase and phosphodiesterase activity.)

The target of another test is human CB2 receptors (Homo sapiens (Human), UniProt P34972). Nature of the test: cAMP assay, CHO cells expressing human CB2 receptors. The class given is cell-based. As to conditions: CHO cells expressing human CB2, cAMP; read-out: human CB2 EC50. The essentials: as §1
human CB2 receptors, sequence (P34972 whole entry): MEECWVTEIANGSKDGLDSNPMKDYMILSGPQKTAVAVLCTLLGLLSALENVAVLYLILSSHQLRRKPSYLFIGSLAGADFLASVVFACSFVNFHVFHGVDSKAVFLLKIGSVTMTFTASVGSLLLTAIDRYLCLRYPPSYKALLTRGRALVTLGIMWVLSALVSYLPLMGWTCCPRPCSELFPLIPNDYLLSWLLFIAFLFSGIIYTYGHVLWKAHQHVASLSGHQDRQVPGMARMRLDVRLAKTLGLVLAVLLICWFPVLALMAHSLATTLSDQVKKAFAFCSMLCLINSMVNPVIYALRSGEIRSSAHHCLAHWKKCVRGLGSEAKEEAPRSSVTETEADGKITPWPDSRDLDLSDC

human CB1 receptors, sequence (P21554 whole entry): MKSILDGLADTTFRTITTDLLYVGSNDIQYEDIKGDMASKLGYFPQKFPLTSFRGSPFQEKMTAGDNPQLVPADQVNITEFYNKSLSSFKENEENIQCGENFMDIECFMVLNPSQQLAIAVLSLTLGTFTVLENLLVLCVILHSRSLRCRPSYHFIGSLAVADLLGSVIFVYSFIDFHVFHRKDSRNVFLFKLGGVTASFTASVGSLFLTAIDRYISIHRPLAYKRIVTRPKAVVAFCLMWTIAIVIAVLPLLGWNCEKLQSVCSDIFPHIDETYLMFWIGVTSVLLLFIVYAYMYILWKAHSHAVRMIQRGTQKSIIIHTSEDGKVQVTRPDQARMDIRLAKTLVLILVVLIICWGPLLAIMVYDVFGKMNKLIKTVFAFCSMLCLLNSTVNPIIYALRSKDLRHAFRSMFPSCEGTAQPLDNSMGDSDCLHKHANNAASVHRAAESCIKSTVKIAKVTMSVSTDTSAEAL

Usually EC50 stands for the concentration giving half of the maximal effect. Regarding `Cc1nc(C(NC(=O)c2ccc(N3CCC34COC4)c(OCC3CC3)n2)C2CC2)no1` (centres unmarked) [Example 236, 6-Cyclopropylmethoxy-5-(6-oxa-1-aza-spiro[3.3]hept-1-yl)-pyridine-2-carboxylic acid [cyclopropyl-(5-methyl-[1,2,4]oxadiazol-3-yl)-methyl]-amide], the EC50 was > 10000 nM on human CB1 receptors and 36.5 nM on human CB2 receptors.
Turning to `O=C(N[C@H](c1cccnc1)C(F)(F)F)c1ccc(N2CC(F)(F)C2)c(OCC2CC2)n1` [Example 237, 6-Cyclopropylmethoxy-5-(3,3-difluoro-azetidin-1-yl)-pyridine-2-carboxylic acid ((R)-2,2,2-trifluoro-1-pyridin-3-yl-ethyl)-amide], the figures for the EC50 on human CB1 receptors and on human CB2 receptors were > 10000 nM and 97.5 nM, respectively.
In the case of `CCC(CC)(NC(=O)c1ccc(C(F)(F)F)c(OCC2CCOCC2)n1)C(=O)OC` [Example 238, 2-Ethyl-2-{[6-(tetrahydro-pyran-4-ylmethoxy)-5-trifluoromethyl-pyridine-2-carbonyl]-amino}-butyric acid methyl ester], the EC50 at human CB1 receptors amounted to 146 nM; at human CB2 receptors, 0.4 nM.
`COC(=O)[C@@H](NC(=O)c1ccc(C2CC2)c(OCC2CC2)n1)C(C)(C)C` [Example 239, (S)-2-[(5-Cyclopropyl-6-cyclopropylmethoxy-pyridine-2-carbonyl)-amino]-3,3-dimethyl-butyric acid methyl ester]: the results for the EC50 at human CB1 receptors and at human CB2 receptors were 91.9 nM and 1.1 nM, respectively.
The corresponding values for `O=C(N[C@@H](c1ccccn1)C(F)(F)F)c1ccc(C2CC2)c(OCC2CC2)n1` [Example 240, 5-Cyclopropyl-6-cyclopropylmethoxy-pyridine-2-carboxylic acid ((−)-2,2,2-trifluoro-1-pyridin-2-yl-ethyl)-amide] are > 10000 nM and 66.1 nM.
On to `Cc1nc([C@@H](C)NC(=O)c2ccc(C3CC3)c(OCC3CC3)n2)no1` [Example 241, 5-Cyclopropyl-6-cyclopropylmethoxy-pyridine-2-carboxylic acid [(−)-1-(5-methyl-[1,2,4]oxadiazol-3-yl)-ethyl]-amide], for which the EC50 at human CB1 receptors was > 10000 nM; at human CB2 receptors, 49.1 nM.
Consider `Cc1nc([C@H](CC(C)C)NC(=O)c2ccc(C3CC3)c(OCC3CC3)n2)no1` [Example 242, 5-Cyclopropyl-6-cyclopropylmethoxy-pyridine-2-carboxylic acid [(+)-3-methyl-1-(5-methyl-[1,2,4]oxadiazol-3-yl)-butyl]-amide], for which the EC50 on human CB1 receptors is > 10000 nM; at human CB2 receptors, 1.2 nM.
The corresponding values for `Cc1nc([C@@H](CC(C)C)NC(=O)c2ccc(C3CC3)c(OCC3CC3)n2)no1` [Example 243, 5-Cyclopropyl-6-cyclopropylmethoxy-pyridine-2-carboxylic acid [(−)-3-methyl-1-(5-methyl-[1,2,4]oxadiazol-3-yl)-butyl]-amide] are 830 nM and 22.1 nM.
On to `CC[C@H](NC(=O)c1ccc(C2CC2)c(OCC2CC2)n1)c1noc(C)n1` [Example 244, 5-Cyclopropyl-6-cyclopropylmethoxy-pyridine-2-carboxylic acid [(+)-1-(5-methyl-[1,2,4]oxadiazol-3-yl)-propyl]-amide], for which the half-maximal effective concentration (EC50) at human CB1 receptors is > 10000 nM; at human CB2 receptors it was 14.1 nM.
As for `CC[C@@H](NC(=O)c1ccc(C2CC2)c(OCC2CC2)n1)c1noc(C)n1` [Example 245, 5-Cyclopropyl-6-cyclopropylmethoxy-pyridine-2-carboxylic acid [(−)-1-(5-methyl-[1,2,4]oxadiazol-3-yl)-propyl]-amide], the values for the EC50 at human CB1 receptors and at human CB2 receptors were > 10000 nM and 20.5 nM, respectively.
The matching figures for `C[C@@H](C#N)NC(=O)c1ccc(C2CC2)c(OCC2CC2)n1` [Example 246, 5-Cyclopropyl-6-cyclopropylmethoxy-pyridine-2-carboxylic acid ((−)-cyano-methyl-methyl)-amide]: 2470 nM and 215 nM.
In the case of `CC(C)C[C@H](C#N)NC(=O)c1ccc(C2CC2)c(OCC2CC2)n1` [Example 247, 5-Cyclopropyl-6-cyclopropylmethoxy-pyridine-2-carboxylic acid ((−)-1-cyano-3-methyl-butyl)-amide], the EC50 on human CB1 receptors is > 10000 nM; at human CB2 receptors it was 5.6 nM.
On to `N#C[C@H](NC(=O)c1ccc(C2CC2)c(OCC2CC2)n1)C1CC1` [Example 248, 5-Cyclopropyl-6-cyclopropylmethoxy-pyridine-2-carboxylic acid ((+)-cyano-cyclopropyl-methyl)-amide], for which the EC50 was > 10000 nM at human CB1 receptors and 51 nM on human CB2 receptors.
The matching figures for `CCC(CC)(NC(=O)c1ccc(C(F)(F)F)c(OCC2CC2)n1)C(=O)OC` [Example 249, 2-[(6-Cyclopropylmethoxy-5-trifluoromethyl-pyridine-2-carbonyl)-amino]-2-ethyl-butyric acid methyl ester]: > 10000 nM and 2.2 nM.
As to `CCC(CC)(NC(=O)c1ccc(C2CC2)c(OCC2CCCO2)n1)C(=O)NC` (centres unmarked) [Example 250, 5-Cyclopropyl-6-(tetrahydro-furan-2-ylmethoxy)-pyridine-2-carboxylic acid (1-ethyl-1-methylcarbamoyl-propyl)-amide], the EC50 is > 10000 nM on human CB1 receptors and 9.5 nM on human CB2 receptors.
In the case of `CCC(CC)(NC(=O)c1ccc(C2CC2)c(OCC2CC2)n1)C(=O)OC` [Example 251, 2-[(5-Cyclopropyl-6-cyclopropylmethoxy-pyridine-2-carbonyl)-amino]-2-ethyl-butyric acid methyl ester], the EC50 turned out to be 90.6 nM on human CB1 receptors and 1.4 nM on human CB2 receptors.
On to `CCC(CC)(NC(=O)c1ccc(C(F)(F)F)c(OCC2CC2)n1)C(=O)O` [Example 252, 2-[(6-Cyclopropylmethoxy-5-trifluoromethyl-pyridine-2-carbonyl)-amino]-2-ethyl-butyric acid], for which the EC50 is > 10000 nM at human CB1 receptors and 552 nM at human CB2 receptors.
Take `CCC(CC)(NC(=O)c1ccc(C(F)(F)F)c(OCC2CCOCC2)n1)C(=O)NC` [Example 253, 6-(Tetrahydro-pyran-4-ylmethoxy)-5-trifluoromethyl-pyridine-2-carboxylic acid (1-ethyl-1-methylcarbamoyl-propyl)-amide]: the results for the EC50 at human CB1 receptors and at human CB2 receptors were > 10000 nM and 14.3 nM, respectively.
The corresponding values for `CCOC(=O)C(CC)(CC)NC(=O)c1ccc(C(F)(F)F)c(OCC2CCCO2)n1` (centres unmarked) [Example 254, 2-Ethyl-2-{[6-(tetrahydro-furan-2-ylmethoxy)-5-trifluoromethyl-pyridine-2-carbonyl]-amino}-butyric acid ethyl ester] are 518 nM and 2.3 nM.
Regarding `CN(C)C(=O)C(NC(=O)c1ccc(N2CC(F)(F)C2)c(OCC2CC2)n1)c1ccccc1` (centres unmarked) [Example 255, 6-Cyclopropylmethoxy-5-(3,3-difluoro-azetidin-1-yl)-pyridine-2-carboxylic acid (dimethylcarbamoyl-phenyl-methyl)-amide], the values for the EC50 at human CB1 receptors and on human CB2 receptors were > 10000 nM and 61.3 nM, respectively.
For the compound `CN(C)C(=O)[C@H](CC1CC1)NC(=O)c1ccc(N2CC(F)(F)C2)c(OCC2CC2)n1` [Example 256, 6-Cyclopropylmethoxy-5-(3,3-difluoro-azetidin-1-yl)-pyridine-2-carboxylic acid ((S)-2-cyclopropyl-1-dimethylcarbamoyl-ethyl)-amide], the figures for the EC50 at human CB1 receptors and at human CB2 receptors were > 10000 nM and 9.3 nM, respectively.
For `CCOC(=O)C(CC)(CC)NC(=O)c1ccc(C2CC2)c(OCC2CC2)n1` [Example 257, 2-[(5-Cyclopropyl-6-cyclopropylmethoxy-pyridine-2-carbonyl)-amino]-2-ethyl-butyric acid ethyl ester], the EC50 was 347 nM at human CB1 receptors and 2.3 nM on human CB2 receptors.
In the case of `COC(=O)[C@H](CC1CC1)NC(=O)c1ccc(C2CC2)c(OCC2CC2)n1` [Example 258, (S)-3-Cyclopropyl-2-[(5-cyclopropyl-6-cyclopropylmethoxy-pyridine-2-carbonyl)-amino]-propionic acid methyl ester], the figures for the EC50 on human CB1 receptors and at human CB2 receptors were > 10000 nM and 7.1 nM, respectively.
Regarding `CCC(CC)(NC(=O)c1ccc(C(F)(F)F)c(OCC2CC2)n1)C(=O)NC` [Example 259, 6-Cyclopropylmethoxy-5-trifluoromethyl-pyridine-2-carboxylic acid (1-ethyl-1-methylcarbamoyl-propyl)-amide], the figures for the EC50 at human CB1 receptors and on human CB2 receptors were > 10000 nM and 5.1 nM, respectively.
In the case of `Cc1nc([C@@H](NC(=O)c2cccc(-c3ccc(F)c(Cl)c3)n2)C2CC2)no1` [Example 260, 6-(3-Chloro-4-fluoro-phenyl)-pyridine-2-carboxylic acid [(−)-cyclopropyl-(5-methyl-[1,2,4]oxadiazol-3-yl)-methyl]-amide], the concentration for a half-maximal effect (EC50) was > 10000 nM on human CB1 receptors and 24.9 nM on human CB2 receptors.
Consider `Cc1nc([C@H](NC(=O)c2cccc(-c3ccc(F)c(Cl)c3)n2)C2CC2)no1` [Example 261, 6-(3-Chloro-4-fluoro-phenyl)-pyridine-2-carboxylic acid [(+)-cyclopropyl-(5-methyl-[1,2,4]oxadiazol-3-yl)-methyl]-amide], for which the EC50 on human CB1 receptors amounted to 260 nM; at human CB2 receptors, 10.1 nM.
Turning to `CCC(CC)(NC(=O)c1ccc(C(F)(F)F)c(OCC2CCOCC2)n1)C(=O)N(C)C` [Example 262, 6-(Tetrahydro-pyran-4-ylmethoxy)-5-trifluoromethyl-pyridine-2-carboxylic acid (1-dimethylcarbamoyl-1-ethyl-propyl)-amide], the 50% effective concentration (EC50) at human CB1 receptors was > 10000 nM; at human CB2 receptors, 74.8 nM.
As for `CCOC(=O)C(CC)(CC)NC(=O)c1ccc(N2CCC23COC3)c(OCC2CC2)n1` [Example 263, 2-{[6-Cyclopropylmethoxy-5-(6-oxa-1-aza-spiro[3.3]hept-1-yl)-pyridine-2-carbonyl]-amino}-2-ethyl-butyric acid ethyl ester], the results for the EC50 on human CB1 receptors and at human CB2 receptors were > 10000 nM and 4.5 nM, respectively.
